Our source for the IC50 values is patent publication US20120277209A1, “PYRAZINE COMPOUNDS AS PHOSPHODIESTERASE 10 INHIBITORS” (Amgen Inc., priority 2009, published 2012).

The target of the first experiment is PDE10 (UniProt Q9Y233). In words: PDE10 enzyme inhibition, IMAP TR-FRET assay (MPDE10A7 Enzyme Activity and Inhibition). The following applies: IC50 class against PDE10; read-out: IC50. Format: biochemical. The method, boiled down: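 PDE10A enzyme or tissue homogenate preincubated with compounds 30 min at room temperature, then fluorescein-labelled cAMP or cGMP added for 60 min. IMAP binding reagent stop, TR-FRET read. Values are mean IC50s, grouped into five potency classes.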
(In general: Time-resolved FRET reads energy transfer from a long-lived donor to a nearby acceptor.)
As a reminder, the IC50 is the concentration that inhibits the measured activity by half. Turning to `N#CC1(c2nccnc2Oc2ccc(Nc3nc4ccccc4s3)cc2)CCOCC1` [Example 200, 4-(3-(4-(BENZO[D]THIAZOL-2-YLAMINO)PHENOXY)PYRAZIN-2-YL)TETRAHYDRO-2H-PYRAN-4-CARBONITRILE], the IC50 was < 25 nM.

`COCC(=O)N1CCC(c2nccnc2Oc2ccc(C(=O)c3nc4ccccc4[nH]3)cc2)CC1` [Example 232, 1-(4-(3-(4-(1H-benzo[d]imidazole-2-carbonyl)phenoxy)pyrazin-2-yl)piperidin-1-yl)-2-methoxyethanone]: the IC50 was < 25 nM.

As for `O=C(c1ccc(Oc2nccnc2OCCN2CCOCC2)cc1)c1nc2ccccc2[nH]1` [Example 172, (1H-benzo[d]imidazol-2-yl)(4-(3-(2-morpholinoethoxy)pyrazin-2-yloxy)phenyl)methanone], the half-inhibitory concentration (IC50) fell in the range of 100 to 250 nM.

Consider `COC(=O)C1(c2nccnc2Oc2ccc(Nc3nc4ccccc4s3)cc2)CCN(C(=O)OC(C)(C)C)CC1` [Example 205, 1-tert-butyl 4-methyl 4-(3-(4-(benzo[d]thiazol-2-ylamino)phenoxy)pyrazin-2-yl)piperidine-1,4-dicarboxylate], for which the IC50 was < 25 nM.

Turning to `COc1ccncc1-c1nccnc1Oc1ccc(C(=O)c2nc3ccccc3[nH]2)cc1` [Example 112, (1H-benzo[d]imidazol-2-yl)(4-(3-(4-methoxypyridin-3-yl)pyrazin-2-yloxy)phenyl)methanone], the IC50 was 25 to 100 nM.

On to `CC(C)N1CCN(c2nccnc2Oc2ccc(Nc3nc4ccccc4s3)cc2)CC1=O` [Example 91, 4-(3-(4-(benzo[d]thiazol-2-yl-amino)phenoxy)pyrazin-2-yl)-1-isopropylpiperazin-2-one], for which the IC50 lay within 25 to 100 nM.

As to `CN(C)CC(=O)N1CCC(c2nccnc2Oc2ccc(C(=O)c3nc4ccccc4[nH]3)cc2)CC1` [Example 245, 1-(4-(3-(4-(1H-benzo[d]imidazole-2-carbonyl)phenoxy)pyrazin-2-yl)piperidin-1-yl)-2-(dimethylamino) ethanone], the IC50 was < 25 nM.

In the case of `O=C(c1ccc(Oc2nccnc2C2CCNCC2)cc1)c1nc2ccccc2[nH]1` [Example 230, (1H-benzo[d]imidazol-2-yl)(4-(3-(piperidin-4-yl)pyrazin-2-yloxy)phenyl)methanone], the IC50 is < 25 nM.

For `CC(O)C(=O)N1CCC(c2nccnc2Oc2ccc(Nc3nc4ccccc4s3)cc2)CC1` (stereo not shown) [Example 239, 1-(4-(3-(4-(benzo[d]thiazol-2-ylamino)phenoxy)pyrazin-2-yl)piperidin-1-yl)-2-hydroxypropan-1-one], the IC50 is < 25 nM.

Take `COC(=O)C1(c2nccnc2Oc2ccc(Nc3nc4ccccc4s3)cc2)CCOCC1` [Example 212, methyl 4-(3-(4-(benzo[d]thiazol-2-ylamino)phenoxy)pyrazin-2-yl)tetrahydro-2H-pyran-4-carboxylate]: the concentration for half-maximal inhibition (IC50) is < 25 nM.

`CC(=O)OCC(=O)N1CCC(c2nccnc2Oc2ccc(C(=O)c3nc4ccccc4[nH]3)cc2)CC1` [Example 244, 2-(4-(3-(4-(1H-benzo[d]imidazole-2-carbonyl)phenoxy)pyrazin-2-yl)piperidin-1-yl)-2-oxoethyl acetate]: the concentration for half-maximal inhibition (IC50) is < 25 nM.

Regarding `COc1ncccc1-c1nccnc1Oc1ccc(Nc2nc3ccccc3s2)c(F)c1` [Example 157, N-(2-fluoro-4-(3-(2-methoxypyridin-3-yl)pyrazin-2-yloxy)phenyl)benzo[d]thiazol-2-amine], the IC50 was 25 to 100 nM.

Turning to `O=C(c1ccc(Oc2nccnc2C2CCCOCC2)cc1)c1nc2ccccc2[nH]1` (stereo not shown) [Example 198, (1H-benzo[d]imidazol-2-yl)(4-(3-(oxepan-4-yl)pyrazin-2-yloxy)phenyl)methanone], the IC50 is < 25 nM.

For `CC(=O)N1CCC(c2nccnc2Oc2ccc(Nc3nc4ccccc4s3)cc2)CC1` [Example 225, 1-(4-(3-(4-(BENZO[D]THIAZOL-2-YLAMINO)PHENOXY)PYRAZIN-2-YL)PIPERIDIN-1-YL)ETHANONE], the IC50 is < 25 nM.

As for `COC1CCN(c2nccnc2Oc2ccc(Nc3nc4ccccc4s3)cc2)CC1` [Example 92, N-(4-(3-(4-methoxypiperidin-1-yl)pyrazin-2-yloxy)phenyl)-benzo[d]thiazol-2-amine], the IC50 was < 25 nM.

As to `COC[C@@H]1CCCN1c1nccnc1Oc1ccc(Nc2nc3ccccc3s2)cc1` [Example 57, (S)—N-(4-(3-(2-(METHOXYMETHYL)PYRROLIDIN-1-YL)PYRAZIN-2-YLOXY)PHENYL)BENZO[D]THIAZOL-2-AMINE], the IC50 is < 25 nM.

In the case of `c1ccc2sc(Nc3ccc(Oc4nccnc4N4CCC4)cc3)nc2c1` [Example 77, N-(4-(3-(azetidin-1-yl)pyrazin-2-yloxy)phenyl)benzo[d]thiazol-2-amine], the IC50 fell in the range of 25 to 100 nM.

As for `OCCC1CCN(c2nccnc2Oc2ccc(Nc3nc4ccccc4s3)cc2)CC1` [Example 86, 2-(1-(3-(4-(benzo[d]thiazol-2-ylamino)phenoxy)pyrazin-2-yl)piperidin-4-yl)ethanol], the IC50 lay within 25 to 100 nM.

`c1ccc2sc(Nc3ccc(Oc4nccnc4C4CCCC4)cc3)nc2c1` [compound 223, N-(4-(3-cyclopentylpyrazin-2-yloxy)phenyl)benzo [d]thiazol-2-amine]: the IC50 was < 25 nM.

In the case of `O=C(c1ccc(Oc2nccnc2[C@H]2CCC[C@@H](O)C2)cc1)c1nc2ccccc2[nH]1` (racemic) [Example 189, (rac)-cis-(1H-benzo[d]imidazol-2-yl)(4-(3-(3-hydroxycyclohexyl)pyrazin-2-yloxy)phenyl)methanone], the IC50 is < 25 nM.

The experiment is the same for the next values; noted with them: PDE10 enzyme inhibition; average IC50 data for each compound; read-out: Average IC50.
As for `CC(C)(O)[C@H]1CCCN(c2nccnc2Oc2ccc(C(=O)c3nc4ccccc4[nH]3)cc2)C1` (stereo in doubt), the IC50 worked out at 29 nM.

Regarding `COc1ccccc1-c1nccnc1Oc1ccc(C(=O)c2nc3ccccc3[nH]2)cc1` [drawing 944], the IC50 was 2.9 nM.

On to `CC(C)COc1nccnc1Oc1ccc(C(=O)c2nc3ccccc3[nH]2)cc1` [drawing 845], for which the half-inhibitory concentration (IC50) was found to be 26.2 nM.

In the case of `O=C(c1ccc(Oc2nccnc2Cl)cc1)c1nc2ccccc2[nH]1` [drawing 714], the IC50 came to 287 nM.

Take `Cn1c(C(=O)c2ccc(Oc3nccnc3Cl)cc2)nc2ccccc21`: the IC50 worked out at 187 nM.

Take `COc1cncc(-c2nccnc2Oc2ccc(Nc3nc4ccccc4s3)cc2)c1` [drawing 918]: the IC50 is 12.2 nM.

With `COc1cnccc1-c1nccnc1Oc1ccc(C(=O)c2nc3ccccc3[nH]2)cc1` [drawing 960], the IC50 worked out at 0.489 nM.

Turning to `O=C(c1ccc(Oc2nccnc2OCCCc2cccnc2)cc1)c1nc2ccccc2[nH]1` [drawing 861], the IC50 was determined as 10.9 nM.

As to `O[C@@H]1CCC[C@@H](c2nccnc2Oc2ccc(Nc3nc4ccccc4s3)cc2)C1` [drawing 912], the IC50 was found to be 2.54 nM.

`CN(c1ccc(Oc2nccnc2C2CCOCC2)cc1)c1nc2ccccc2s1` [drawing 870]: the IC50 amounted to 11.8 nM.

`CC(=O)N1CCC(c2nccnc2Oc2ccc(Nc3nc4ccccc4s3)cc2F)CC1` [drawing 984]: the IC50 is 1.12 nM.

For the compound `C[C@@H](O)C1CCN(c2nccnc2Oc2ccc(C(=O)c3nc4ccccc4[nH]3)cc2)CC1` (stereo in doubt), the concentration for half-maximal inhibition (IC50) came out at 0.749 nM.

Turning to `Cc1ccc(-c2nccnc2Oc2ccc(Nc3nc4ccccc4s3)cc2)cn1` [drawing 764], the IC50 worked out at 11.3 nM.

`OC(c1ccc(Oc2nccnc2C2CCOCC2)cc1)c1nc2ccccc2[nH]1` (stereo not shown): the IC50 was found to be 386 nM.

On to `COc1cccc(-c2nccnc2Oc2ccc(Nc3nc4ccccc4s3)cc2)c1` [drawing 740], for which the IC50 was 96.1 nM.

As for `C[C@@H]1CN(c2nccnc2Oc2ccc(Nc3nc4ccccc4s3)cc2)CC(=O)N1` (racemic), the IC50 is 4.64 nM.

In the case of `C[C@H](F)C(=O)N1CCC(c2nccnc2Oc2ccc(Nc3nc4ccccc4s3)cc2)CC1` [drawing 979], the IC50 was 0.156 nM.

Take `COc1cc(-c2nccnc2Oc2ccc(Nc3nc4ccccc4s3)cc2)ccn1` [drawing 958]: the IC50 was found to be 46.4 nM.

For `CN1CCCC1CCOc1nccnc1Oc1ccc(C(=O)c2nc3ccccc3[nH]2)cc1` (stereo not shown) [drawing 858], the IC50 came out at 235 nM.

Take `O=C(c1ccc(Oc2nccnc2C(=O)NCCO)cc1)c1nc2ccccc2[nH]1` [drawing 817]: the IC50 was determined as 65.5 nM.

Take `COc1ncccc1-c1nccnc1Oc1ccc([C@H](O)c2nc3ccccc3[nH]2)cc1` (stereo in doubt): the half-maximal inhibitory concentration (IC50) is 14.9 nM.

On to `O=C(c1ccc(Oc2nccnc2-c2ccnc3ccccc23)cc1)c1nc2ccccc2[nH]1` [drawing 799], for which the IC50 came to 3.59 nM.

In the case of `C[C@H]1CN(c2nccnc2Oc2ccc(Nc3nc4ccccc4s3)cc2)CC(=O)N1` [drawing 835], the IC50 was 17.1 nM.

In the case of `O[C@H]1CCC[C@@H](c2nccnc2Oc2ccc(Nc3nc4ccccc4s3)cc2)C1` [drawing 903], the IC50 is 1.33 nM.

Consider `O=C(c1ccc(Oc2nccnc2N2CC[C@H](O)C2)cc1)c1nc2ccccc2[nH]1`, for which the IC50 was 5.12 nM.

Turning to `Cc1nnc2n1CCN(c1nccnc1Oc1ccc(C(=O)c3nc4ccccc4[nH]3)cc1)C2`, the IC50 is 6.03 nM.

With `O=C(c1ccc(Oc2nccnc2[C@H]2CCC[C@H](O)C2)cc1)c1nc2ccccc2[nH]1` [drawing 915], the IC50 amounted to 1.12 nM.

Turning to `COc1ccncc1-c1nccnc1Oc1ccc(C(=O)c2nc3ccccc3[nH]2)cc1` [drawing 990], the IC50 was 0.533 nM.

For `CC1(C)CCC(=O)[C@H](c2nccnc2Oc2ccc(C(=O)c3nc4ccccc4[nH]3)cc2)C1`, the IC50 amounted to 41.8 nM.

Regarding `O=C(c1ccc(Oc2nccnc2N2CCC(N3CCOCC3)CC2)cc1)c1nc2ccccc2[nH]1`, the 50% inhibitory concentration (IC50) is 27 nM.

Take `Cc1cc(-c2nccnc2Oc2ccc(C(=O)c3nc4ccccc4[nH]3)cc2)ccn1` [drawing 726]: the IC50 was 5.67 nM.

Still in this experiment, the particulars now being: PDE10 enzyme inhibition; chiral compounds separated from racemic mixtures; read-out: IC50.
With `O[C@@H]1CCC[C@H](c2nccnc2Oc2ccc(Nc3nc4ccccc4s3)cc2)C1` [Example 272, (1R,3S)-3-(3-(4-(benzo[d]thiazol-2-ylamino)phenoxy)pyrazin-2-yl)cyclohexanol], the IC50 was < 25 nM.
